# Literature values, collected in patent US20090196894A1, “Self Tanning Composition” (priority 2006, published 2009).
# Conditions: over the entire pH range, among the investigated hydroxyflavones
structure (smiles),measurement,value
"O=c1c(O)c(-c2ccc(O)c(O)c2)oc2cc(O)cc(O)c12 [quercetin, 3,3′,4′,5,7-pentahydrooxyflavone]",antioxidative effect,highest activity
